Assay results taken from patent EP4458977A1, “SELF-ASSEMBLING PEPTIDE AMPHIPHILES AS RETROVIRAL TRANSDUCTION ENHANCERS” (Max-Planck-Gesellschaft zur Förderung der Wissenschaften …, priority 2023, dated 2024).
Values joined by “and” are separate entries in the source; they are usually repeats but may differ in a detail not shown here. Identical values can stand only once. “Also recorded” adds a separate entry of the source. Like-named read-outs stand apart in the source and are kept apart here. Where a SMILES comes first, the peptide text is derived from it. The star is where a group is joined. X1 = CC/C=C\C/C=C\C/C=C\C/C=C\C/C=C\CCCC(=O)*; Palmitoyl = CCCCCCCCCCCCCCCC(=O)*; Lauroyl = CCCCCCCCCCCC(=O)*; Nonanoyl = CCCCCCCCC(=O)*

Key:
[1] = TEM of peptide assemblies (fibril formation / assembly); format: physicochemical; design: key to Fibril Formation: "1" means fibril formation observed; "0" means no fibrils observed; conditions: for TEM morphology (in words): 1 mg/mL in PBS; for Assembly without hydrophob residue: corresponding peptide without hydrophobic moiety; for Assembly: peptide amphiphile; for Fibril Formation: via TEM, hydrophobic moiety exchange
In short: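 Peptides predissolved in DMSO at 10 mg/mL (stock), diluted in PBS to 650 µM or 1 mg/mL final and incubated 1 d at rt (20–25 °C) to form fibrils. Other concentrations obtained by diluting preformed fibrils; assemblies imaged by TEM.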

HeLa cells = test: Confocal laser scanning microscopy and degradation study with PA library and HeLa cells; format: cell-based; conditions: for association with cellular membranes: 2 µg added to 20.000 HeLa cells, 30 min; for degradability (in words) / Degradability / % (rel. to initial particles > 10 µm^2): HeLa cells; for degradability (in words): 3 days; for Degradability / % (rel. to initial particles > 10 µm^2): 3 d relative to 30 min; for aggregate number decreases / degraded in presence of HeLa cells within 3 days: d3 relative to d0
In short: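 HeLa cells (20,000/well) got Proteostat-stained PAs (2 µg peptide per 20.000 cells) with Hoechst nuclear stain, 30 min at 37°C, PBS-washed, then held 3 d at 37°C unwashed. Confocal imaging at d0 and d3 counted aggregates >10 µm^2 in 1008 × 1008 µm, three technical replicates. Degradation taken as d3/d0 aggregate number.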

[2] = Fluorescence microscopy of ThT-stained fibrils (µm-sized aggregates); format: physicochemical; conditions: for fluorescent, µm-sized aggregates (ThT staining): 1 mg/mL stained with 50 µM ThT
In short: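 Fibrils (1 mg mL^-1) mixed 1:9 with 50 µM ThT, giving 0.1 mg mL^-1 stained fibrils on glass. Imaged under 10x air objective with excitation 480/40 nm and emission 527/30 nm. Fibrils called distinct when no visible structures appeared in fluorescence or brightfield.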

[3] = Thioflavin T (ThT) fluorescence assay; format: physicochemical; conditions: relative to PBS control
Experimental: Transmission electron microscopy (TEM) measurements, Thioflavin (ThT), zeta-potential measurements for fibril characterization were prepared and conducted according to prior art procedures. […] Fibrils were defined as distinct, if no visible structures could be identified in fluorescence and brightfield microscopy. A peptide fibril was considered as ThT-active if the fluorescence intensity was at least twice as strong compared to the control (PBS containing 10% DMSO).

HIV-1 = conditions: for Infectivity enhancing N fold at 1.3 µM: relative to virus only; for enhancement of HIV-1 infection / transduction (in words): 6.5 µM, 1.3 µM, 0.26 µM;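 on all read-outs here: TZM-bl reporter cells exposed to HIV-1 with peptide fibrils, infection read out as β-galactosidase luminescence, compared with virus alone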
Experimental: HIV-1 Infection Assay with TZM-bl cells: The effect of peptide fibrils on HIV-1 infection was studied via a luminescence assay for β-galactosidase, which was reported by TZM-bl cells upon infection. The HIV-1 infection assay was conducted in three technical replicates and repeated in three independent experiments unless stated otherwise.

[4] = ATR-FT-IR determination of β-sheet content; format: physicochemical; conditions: 1 mg/mL in PBS lyophilized; integral at 1630 cm^-1 relative to 1650-1700 cm^-1
In short: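 Lyophilized fibril samples measured by diamond ATR-FT-IR, 2 cm^-1 resolution, 64 scans averaged. β-sheet content taken from the second-derivative spectrum as the 1630 cm-1 peak integral relative to the 1650-1700 cm-1 integral.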

[5] = Zeta-potential measurement (dynamic light scattering); format: physicochemical
[6] = as above; format: physicochemical; conditions: for Count Rate / kcps: derived count rate of scattered light during zeta-potential measurements
Experimental: Zeta-potential: 60 µL of the peptides (1 mg mL-1) were diluted in 600 µL, 1 mM KCI solution and placed in a disposable folded capillary cuvette. All zeta-potential measurements were conducted by dynamic light scattering technology (Zetasizer, Malvern Instruments) and in triplicates for each sample. The derived count rate of the zeta potential measurement was used as information on the light scattering intensity and turbidity of the sample as a further indicator for microscopic aggregation.

Question: Which “TEM morphology (in words)” value [1] does the source give for `CCCCCCCCCCCC(=O)N[C@H](C(=O)N[C@H](C(=O)N[C@H](C(=O)N[C@@H](C)C(=O)N[C@@H](C)C(=O)N[C@@H](C)C(=O)N[C@@H](CCCCN)C(=O)N[C@@H](CCCCN)C(=O)N[C@@H](CCCCN)C(N)=O)C(C)C)C(C)C)C(C)C` [Pat7] (Lauroyl-VVVAAAKKK-NH2) here?
Answer: Its value is “able to form fibrils; also recorded: fibrillar morphologies”.

Question: And the “Assembly without hydrophob residue” value [1]?
Answer: The value was “No”.

Question: What about the Assembly [1] of the same molecule?
Answer: The Assembly was “Yes”.

Question: What about the “Fibril Formation” value [1] of the same molecule?
Answer: Its value is 1.

Question: What about the “association with cellular membranes” value (HeLa cells) of the same molecule?
Answer: The value was “association with cellular membranes”.

Question: And the “degradability (in words)” value (HeLa cells)?
Answer: The value was “non-degradable PA”.

Question: What about the “Degradability / % (rel. to initial particles > 10 µm^2)” value (from here on “Degradability / %”) (HeLa cells) of the same molecule?
Answer: Its value is -32%.

Question: And the “aggregate number decreases / degraded in presence of HeLa cells within 3 days” value (shortened to “aggregate number decreases / degraded”) (HeLa cells)?
Answer: Its value is 32%.

Question: What about the “formation of µm-sized aggregates in aqueous medium / PBS (in words)” value (from here on “formation … in aqueous medium / PBS (in words)”) [2] of the same molecule?
Answer: Its value is “form µm-sized aggregates”.

Question: And the “fluorescent, µm-sized aggregates (ThT staining)” value (“fluorescent … (ThT staining)” for short) [2]?
Answer: Its value is “fluorescent, µm-sized aggregates”.

Question: What about the “N-fold ThT-fluorescence” value [3] of the same molecule?
Answer: Its value is 185.7.

Question: What about the “enhances infectivity at 1.3 µM concentration, times more efficient compared to virus only infection” value (HIV-1) of the same molecule?
Answer: The value was 6 times.

Question: And the “Infectivity enhancing N fold at 1.3 µM” value (HIV-1)?
Answer: The value was 6±1 N fold.

Question: What about the β-sheet amount [4] of the same molecule?
Answer: The β-sheet amount was 49%.

Question: What about the “Zeta-Potential / mV” value [5] of the same molecule?
Answer: Its value is 19.4 mV.

Question: And the “zeta-potential (in words)” value [6]?
Answer: Its value is “positive zeta-potential”.

Question: And the “Count Rate / kcps” value [6]?
Answer: The value was 3558.1 kcps.

Question: Which “TEM morphology (in words)” value [1] does the source give for `CCCCCCCCC(=O)N[C@H](C(=O)N[C@H](C(=O)N[C@H](C(=O)N[C@@H](C)C(=O)N[C@@H](C)C(=O)N[C@@H](C)C(=O)N[C@@H](CCCCN)C(=O)N[C@@H](CCCCN)C(=O)N[C@@H](CCCCN)C(N)=O)C(C)C)C(C)C)C(C)C` [Pat8] (Nonanoyl-VVVAAAKKK-NH2) here?
Answer: The value was “formed fibrils in aqueous medium; also recorded: fibrillar morphologies”.

Question: What about the “Assembly without hydrophob residue” value [1] of the same molecule?
Answer: The value was “No”.

Question: And the Assembly [1]?
Answer: The Assembly was “Yes”.

Question: What about the “Fibril Formation” value [1] of the same molecule?
Answer: The value was 1.

Question: What about the “association with cellular membranes” value (HeLa cells) of the same molecule?
Answer: The value was “association with cellular membranes”.

Question: And the “degradability (in words)” value (HeLa cells)?
Answer: Its value is “non-degradable PA”.

Question: What about the “Degradability / %” value (HeLa cells) of the same molecule?
Answer: Its value is 78%.

Question: What about the “aggregate number decreases / degraded” value (HeLa cells) of the same molecule?
Answer: Its value is 78%.

Question: And the “formation … in aqueous medium / PBS (in words)” value [2]?
Answer: Its value is “failed to form µm-sized aggregates in aqueous medium”.

Question: What about the “fluorescent … (ThT staining)” value [2] of the same molecule?
Answer: The value was “fluorescent, µm-sized aggregates”.

Question: What about the “N-fold ThT-fluorescence” value [3] of the same molecule?
Answer: The value was 37.1.

Question: What about the “infectivity enhancement at 1.3 µM concentration compared to virus only infection (in words)” value (HIV-1) of the same molecule?
Answer: The value was “does not enhance infectivity”.

Question: What about the “Infectivity enhancing N fold at 1.3 µM” value (HIV-1) of the same molecule?
Answer: Its value is 2±0 N fold.

Question: And the β-sheet amount [4]?
Answer: Its β-sheet amount is 49%.

Question: And the “Zeta-Potential / mV” value [5]?
Answer: The value was 13.5 mV.

Question: What about the “Count Rate / kcps” value [6] of the same molecule?
Answer: The value was 77.2 kcps.

Question: Which “TEM morphology (in words)” value [1] does the source give for `CC/C=C\C/C=C\C/C=C\C/C=C\C/C=C\CCCC(=O)N[C@H](C(=O)N[C@H](C(=O)N[C@H](C(=O)N[C@@H](C)C(=O)N[C@@H](C)C(=O)N[C@@H](C)C(=O)N[C@@H](CCCCN)C(=O)N[C@@H](CCCCN)C(=O)N[C@@H](CCCCN)C(N)=O)C(C)C)C(C)C)C(C)C` [Pat10] (X1-VVVAAAKKK-NH2) here?
Answer: Its value is “able to form fibrils; also recorded: condensed spherical structures composed of fibrils”.

Question: What about the “Assembly without hydrophob residue” value [1] of the same molecule?
Answer: Its value is “No”.

Question: What about the Assembly [1] of the same molecule?
Answer: Its Assembly is “Yes”.

Question: What about the “Fibril Formation” value [1] of the same molecule?
Answer: The value was 1.

Question: And the “association with cellular membranes” value (HeLa cells)?
Answer: Its value is “association with cellular membranes”.

Question: And the “degradability (in words)” value (HeLa cells)?
Answer: Its value is “degradable PA”.

Question: What about the “Degradability / %” value (HeLa cells) of the same molecule?
Answer: Its value is 99%.

Question: And the “aggregate number decreases / degraded” value (HeLa cells)?
Answer: Its value is 99%.

Question: What about the “formation … in aqueous medium / PBS (in words)” value [2] of the same molecule?
Answer: The value was “form µm-sized aggregates”.

Question: And the “fluorescent … (ThT staining)” value [2]?
Answer: The value was “fluorescent, µm-sized aggregates”.

Question: What about the “N-fold ThT-fluorescence” value [3] of the same molecule?
Answer: Its value is 61.9.

Question: And the “enhances infectivity at 1.3 µM concentration, times more efficient compared to virus only infection” value (HIV-1)?
Answer: Its value is 12 times.

Question: And the “enhancement of HIV-1 infection / transduction (in words)” value (HIV-1)?
Answer: Its value is “showed infectivity enhancement”.

Question: And the “enhancement of HIV-1 infection / transduction (in words)” value (HIV-1; listed as peptide amphiphile with eicosapentaenoic acid (EPA))?
Answer: The value was “even stronger infectivity enhancement than the reference compounds EF-C or PA1”.

Question: What about the “Infectivity enhancing N fold at 1.3 µM” value (HIV-1) of the same molecule?
Answer: Its value is 12±1 N fold.

Question: What about the β-sheet amount [4] of the same molecule?
Answer: The β-sheet amount was 51%.

Question: And the “Zeta-Potential / mV” value [5]?
Answer: The value was 16.9 mV.

Question: And the “zeta-potential (in words)” value [6]?
Answer: The value was “positive zeta-potential”.

Question: What about the “Count Rate / kcps” value [6] of the same molecule?
Answer: The value was 6069.8 kcps.

Question: Which “TEM morphology (in words)” value [1] does the source give for `CCCCCCCCCCCCCCCC(=O)N[C@@H](CC(C)C)C(=O)N[C@@H](CC(N)=O)C(=O)NCC(=O)NCC(=O)N[C@H](C(=O)N[C@@H](CCCCN)C(=O)N[C@@H](CCCCN)C(N)=O)C(C)C` [Pat19, C16-LNGGVKK-NH2] (Palmitoyl-LNGGVKK-NH2) here?
Answer: Its value is “fibrillar morphologies”.

Question: And the “Assembly without hydrophob residue” value [1]?
Answer: The value was “No”.

Question: What about the Assembly [1] of the same molecule?
Answer: The Assembly was “Yes”.

Question: What about the “association with cellular membranes” value (HeLa cells) of the same molecule?
Answer: Its value is “association with cellular membranes”.

Question: What about the “degradability (in words)” value (HeLa cells) of the same molecule?
Answer: Its value is “degradable PA”.

Question: And the “Degradability / %” value (HeLa cells)?
Answer: The value was 48%.

Question: What about the “aggregate number decreases / degraded” value (HeLa cells) of the same molecule?
Answer: Its value is 48%.

Question: And the “fluorescent … (ThT staining)” value [2]?
Answer: The value was “fluorescent, µm-sized aggregates”.

Question: And the “enhances infectivity at 1.3 µM concentration, times more efficient compared to virus only infection” value (HIV-1)?
Answer: The value was 6 times.

Question: And the “Infectivity enhancing N fold at 1.3 µM” value (HIV-1)?
Answer: The value was 6 N fold and 6±1 N fold.

Question: What about the β-sheet amount [4] of the same molecule?
Answer: Its β-sheet amount is 34%.

Question: What about the “Zeta-Potential / mV” value [5] of the same molecule?
Answer: Its value is 19.4 mV.
